Test results from publication PMC7217877, “N-AS-triggered SPMs are direct regulators of microglia in a model of Alzheimer’s disease” (Nature Communications, 2020).
Where “and” joins values, the source holds several entries; their conditions need not be identical. Equal entries are not always repeated.

System: immortalized human microglia
Assay: ac-S565 COX2 in human microglia (western blot, immunofluorescence, Supplementary Fig 6b,c)
Assay type: cell-based
Design: ac-S565 COX2 (western blot): scale not given here
Details: for ac-S565 COX2 (western blot): sFig 6b
Description: To confirm the generation and roles of N-AS in neurons, cells from E18 C57BL/6 mice were prepared as previously described. Cortices were dissected and then dissociated followed by incubation in papain (Worthington) at 37 °C for 15 min. Neurons were plated on poly-L-lysine-coated coverslips with neuronal culture medium, serum-free Neurobasal medium (Gibco) containing 2% B27 supplements (Gibco), 1 mM Glutamax supplement (Gibco), and 100 U ml^−1 streptomycin/ 100 U ml^−1 penicillin (Gibco) at 37 °C in a humidified atmosphere of 5% CO2. Aβ 1–42 (10 μM, 24 h, Invitrogen, 03112) was exposed to neurons and the cells were analyzed for the generation and roles of N-AS. Primary astrocyte cultures were prepared from C57BL/6 mice as described previously. In brief, after removal of the meninges, postnatal day 7 (P7) mouse brain tissues were minced and incubated in a rocking water bath at 37 °C for 30 min in the presence of 0.25% trypsin-EDTA (Sigma-Aldrich). Enzyme-digested dissociated cells were triturated with astrocyte-specific medium (DMEM/F12 containing 10% FBS and 1% penicillin-streptomycin) and centrifuged at 155×g for 8 min. The pellet was resuspended in astrocyte-specific medium and passed through a 40-μm cell strainer. The filtrate was allowed pre-adherence for 30 min to remove any contamination from fibroblasts before being seeded in dishes and the addition of astrocyte-specific medium. To split the cells, Ara-C was added to the dishes and they were then placed in a heated shaker for 6–7 h. The medium was removed from the dishes, and trypsin-EDTA was added to the dish and incubated at 37 °C for 5–10 min. After centrifugation at 155×g for 8 min, the supernatant was removed, and the astrocytes were maintained in culture by feeding […] with astrocyte-specific medium. Primary microglia cultures were prepared from C57BL/6 mice as described previously. In brief, the cortices of 2-months-old mice were minced in Hibernate A (Gibco)/B27 supplements (Gibco) medium and dissociated using papain (Worthington) solution. After tissue trituration, cells were separated by Optiprep (Sigma-Aldrich) density gradient centrifugation. Microglia were plated with microglia-specific medium (DMEM/F12 containing 10% FBS and 1% penicillin-streptomycin). The immortalized human microglia (Applied Biologics Materials, T0251) were cultured in PriGrow III (Applied Biologics Materials, TM003) (supplemented with 10% FBS and 1% penicillin-streptomycin) at 37 °C in a humidified atmosphere of 5% CO2. […] The human microglia treated with Aβ 1–42 and/or zileuton was incubated with N-AS (2.5 μM, 2 h, Sigma-Aldrich, 01912), and were analyzed for the generation and roles of N-AS.
Thioflavin S (Sigma-Aldrich) staining was carried out according to previously described procedures. We used 6E10 (mouse, 1:100, Signet, SIG39300), anti-20G10 (mouse, 1:1000, provided by D. R. Howlett, GlaxoSmithKline, Harlow, Essex, UK) for Aβ42, anti-G30 (rabbit, 1:1000, provided by D. R. Howlett) for Aβ40, SMA (mouse, 1:400, Sigma-Aldrich, A2547), AT8 (mouse, 1:500, Thermo Fisher Scientific, MN1020), Caspase-3 (mouse, 1:200, Novus Biologicals, NB100-56708), ac-S565 (rabbit, 1:100), COX2 (mouse, 1:250, Thermo Fisher Scientific, 35-8200), Iba1 (rabbit, 1:500, Wako, 019-19941 and goat, Abcam, ab5076), NeuN (mouse, 1:500, Millipore, MAB177), GFAP (rabbit, 1:500, Dako, N1506 and chicken, 1:500, Abcam, ab4674), and Lamp1 (mouse, 1:200, Abcam, ab24170). The sections were analyzed with a laser-scanning confocal microscope (FV3000; Olympus) or with a BX51 microscope (Olympus). MetaMorph software (Molecular Devices) was used to quantification. Three-dimensional reconstruction of microglia was recorded and analyzed using IMARIS software (Bitplane)[11]. […]

Row | SMILES | ac-S565 COX2 (western blot) (human microglia, Ab 50mM +) | S565 acetylation of COX2, in words (Aβ-affected human microglia + N-AS) | ac-S565 COX2 (immunofluorescence) (human microglia, Ab 50mM +, sFig 6c) | ac-S565 COX2 (western blot) (human microglia, Ab 50mM -)
1 | CC(=O)SCCNC(=O)CCNC(=O)[C@H](O)C(C)(C)COP(=O)(O)OP(=O)(O)OC[C@H]1O[C@@H](n2cnc3c(N)ncnc32)[C@H](O)[C@@H]1OP(=O)(O)O [Acetyl-CoA, acetyl-CoA] | 1.441 and 1.037 and 1.136 and 1.4813 and 1.401 and 1.309 |  |  | 
2 | CCCCCCCCCCCCC/C=C/[C@@H](O)[C@H](CO)NC(C)=O [N-AS, N-((2S,3R,E)-1,3-Dihydroxyoctadec-4-en-2-yl)acetamide] | 1.839 and 1.211 and 1.367 and 1.737 and 1.941 and 1.552 | restored | 2.003 and 2.188 and 1.708 and 1.496 and 1.357 and 1.768 | 1.105 and 1.597 and 1.621 and 1.1016 and 1.489 and 0.9364
